These results are taken from patent US20240018153A1, “BENZENESULFONAMIDE DERIVATIVES AND USES THEREOF” (2692372 ONTARIO, INC., priority 2020, published 2024).

Where only a bound is given, the exact number is not on record here.

One experiment addresses EGFR (Homo sapiens (Human), UniProt P00533). Kind of experiment: HTRF KinEASE-TK kinase assay, EGFR. In kind it is biochemical. The note with it: 3 h preincubation; for remaining activity at 1 µM: 1 μM compound, read-out: % EGFR Remaining activity vs DMSO (1 μM, 3 h); for remaining activity at 10 µM: 10 μM compound, read-out: % EGFR Remaining activity vs DMSO (10 μM, 3 h). As for the experimental part:
Kinase activity was monitored using a HTRF® KinEASE-TK kit from Cisbio (62TK0PEC). The buffer used was 1× kinase buffer supplemented with 2 mM MnCl2, 5 mM MgCl2, 1 mM TCEP and 100× diluted Supplementary Enzyme Buffer. EGFR was purchased from Promega. […] Reaction with substrate was then initiated by adding biotinylated substrate and ATP. […] After 60 min of incubation, the fluorescence emission was measured at 620 nm and 665 nm. The ratio of Em 665 nm to Em 620 nm was proportional to the amount of substrate phosphorylated by the kinase.
For initial screening, enzymes were pre incubated with compounds at 2 different concentrations (1 and 10 uM final) and 0.5% DMSO.

Experiment [1] has as its target T1, BTK (Homo sapiens (Human), UniProt Q06187). Kind of experiment: HTRF KinEASE-TK kinase assay, BTK. In kind it is biochemical. The following applies: 3 h preincubation; for remaining activity at 1 µM: 1 μM compound, read-out: % BTK Remaining activity vs DMSO (1 μM, 3 h); for remaining activity at 10 µM: 10 μM compound, read-out: % BTK Remaining activity vs DMSO (10 μM, 3 h). As for the experimental part: Kinase activity was monitored using a HTRF® KinEASE-TK kit from Cisbio (62TK0PEC). For BTK, the 1× kinase buffer was supplemented with 10 mM MnCl2, 5 mM MgCl2, 1 uM ATPγS, 1 mM TCEP and 100 fold diluted Supplementary Enzyme Buffer. BTK was purchased from Promega. […] Reaction with substrate was then initiated by adding biotinylated substrate and ATP and the reaction was allowed to proceed for 45 min. […] After 60 min of incubation, the fluorescence emission was measured at 620 nm and 665 nm. The ratio of Em 665 nm to Em 620 nm was proportional to the amount of substrate phosphorylated by the kinase.

Experiment [2] concerns the target T1, BTK. Briefly: Ramos RA1 cell lysis and immunoassay, phospho-BTK (Y223) inhibition. The note with it: RAMOS cells. On the set-up: key: X: BTK bound and autophosphoration of BTK inhibited in cells. In kind it is cell-based. As for the experimental part:
Ramos RA 1 cells (ATCC) were cultured in RPMI-1640 media (Wisent) supplemented with 10% heat-inactivated FBS and 1% penicillin/streptomycin. Cells were seeded in 6-well plates at 1.71×10^6 cells/well and incubated at 37° C., 5% CO2 for 16 hours. Cells were treated with compound at the indicated concentrations or DMSO alone and incubated at 37° C., 5% CO2 for 24 hours. Cell suspensions were centrifugated at 1,400-1,600 RPM for 5 minutes at room temperature and supernatants were discarded. Cell pellets were resuspended with 1× RIPA buffer (Millipore) and incubated on ice for 15 minutes. Protein lysates were extracted by centrifugating at 20,000 RPM for 20 minutes at 4° C. Proteins were separated and total BTK protein levels were quantified by Simple Western Immunoassay (ProteinSimple) using the 12-230 kDa Jess Separation Module according to the manufacturer's protocol, using a protein concentration of 0.25 μg/μl and antibodies targeting BTK (clone #D3H5, Cell Signalling) and β-Actin (clone #AC-15, Santa Cruz) diluted to 1:400 and 1:10, respectively, where the latter was used as a loading control. An equal ratio of rabbit and mouse HRP-conjugated secondary antibodies was used for detection. BTK protein levels were quantified relative to S-Actin loading levels and subsequently normalized to the DMSO control. Phosphorylated BTK levels were quantified using the Protein Normalization Assay Module for Jess (ProteinSimple) according to the manufacturer's protocol, using a protein concentration of 1.5 μg/μl and an antibody targeting pBTK (Y223) (Cell Signalling) diluted to 1:50. Phosphorylated BTK levels were quantified relative to the Protein Normalization Reagent and subsequently normalized to the DMSO control.

The target of the next experiment is BMX (Homo sapiens (Human), UniProt P51813). Briefly: HTRF KinEASE-TK kinase assay, BMX. In kind it is biochemical. The note with it: for remaining activity at 1 µM: 1 uM compound; for remaining activity at 1 µM / remaining activity at 10 µM: 3 h preincubation; for remaining activity at 10 µM: 10 uM compound; for IC50: dose response. As for the experimental part:
(§1) Kinase activity was monitored using a HTRF® KinEASE-TK kit from Cisbio (62TK0PEC). […] BMX was purchased from Promega. 0.333 ng/ul BMX (3.03 nM) was preincubated in the absence or presence of inhibitor at room temperature for 3 hours. The reaction with substrate was then initiated by adding biotinylated substrate and ATP. […] Reaction was terminated by adding 31.25 nM SA-XL665 and 100 fold diluted europium labelled antibody (Eu-Ab), diluted in 1× detection buffer that contained EDTA. After 60 min of incubation, the fluorescence emission was measured at 620 nm and 665 nm. The ratio of Em 665 nm to Em 620 nm was proportional to the amount of substrate phosphorylated by the kinase.

The target of a further experiment is JAK3 (Homo sapiens (Human), UniProt P52333). Briefly: HTRF KinEASE-TK kinase assay, JAK3. The format is biochemical. The following applies: for remaining activity at 1 µM: read-out: % JAK3 Remaining activity vs DMSO (1 μM, 3 h); for remaining activity at 10 µM: read-out: % JAK3 Remaining activity vs DMSO (10 μM, 3 h). The method, then: as §1, with “JAK-3” for “BMX”, “0.0133” for “0.333”, “JAK3 (0.21” for “BMX (3.03”, “Reaction” for “The reaction”, “The reaction” for “Reaction”
Sequence of JAK3 (P52333 781-1124): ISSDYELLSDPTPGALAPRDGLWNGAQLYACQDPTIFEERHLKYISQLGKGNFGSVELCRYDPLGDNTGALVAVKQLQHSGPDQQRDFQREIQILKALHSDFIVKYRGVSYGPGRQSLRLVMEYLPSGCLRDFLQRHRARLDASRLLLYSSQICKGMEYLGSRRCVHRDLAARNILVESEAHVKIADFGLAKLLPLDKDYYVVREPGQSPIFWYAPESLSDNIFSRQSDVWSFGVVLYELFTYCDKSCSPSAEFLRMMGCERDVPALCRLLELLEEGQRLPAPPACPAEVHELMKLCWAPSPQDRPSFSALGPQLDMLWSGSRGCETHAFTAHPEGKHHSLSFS

Another experiment deals with FGFR4 (Homo sapiens (Human), UniProt P22455). Briefly: HTRF KinEASE-TK kinase assay, FGFR4. The note with it: for remaining activity at 1 µM: read-out: % FGFR4 Remaining activity vs DMSO (1 μM, 3 h); for remaining activity at 10 µM: read-out: % FGFR4 Remaining activity vs DMSO (10 μM, 3 h). In kind it is biochemical. As for the experimental part: as §1, with “FGFR-4” for “BMX”, “FGFR4 (5.12” for “BMX (3.03”, “Reaction” for “The reaction”, “The reaction” for “Reaction”
Sequence of FGFR4 (P22455 22-802): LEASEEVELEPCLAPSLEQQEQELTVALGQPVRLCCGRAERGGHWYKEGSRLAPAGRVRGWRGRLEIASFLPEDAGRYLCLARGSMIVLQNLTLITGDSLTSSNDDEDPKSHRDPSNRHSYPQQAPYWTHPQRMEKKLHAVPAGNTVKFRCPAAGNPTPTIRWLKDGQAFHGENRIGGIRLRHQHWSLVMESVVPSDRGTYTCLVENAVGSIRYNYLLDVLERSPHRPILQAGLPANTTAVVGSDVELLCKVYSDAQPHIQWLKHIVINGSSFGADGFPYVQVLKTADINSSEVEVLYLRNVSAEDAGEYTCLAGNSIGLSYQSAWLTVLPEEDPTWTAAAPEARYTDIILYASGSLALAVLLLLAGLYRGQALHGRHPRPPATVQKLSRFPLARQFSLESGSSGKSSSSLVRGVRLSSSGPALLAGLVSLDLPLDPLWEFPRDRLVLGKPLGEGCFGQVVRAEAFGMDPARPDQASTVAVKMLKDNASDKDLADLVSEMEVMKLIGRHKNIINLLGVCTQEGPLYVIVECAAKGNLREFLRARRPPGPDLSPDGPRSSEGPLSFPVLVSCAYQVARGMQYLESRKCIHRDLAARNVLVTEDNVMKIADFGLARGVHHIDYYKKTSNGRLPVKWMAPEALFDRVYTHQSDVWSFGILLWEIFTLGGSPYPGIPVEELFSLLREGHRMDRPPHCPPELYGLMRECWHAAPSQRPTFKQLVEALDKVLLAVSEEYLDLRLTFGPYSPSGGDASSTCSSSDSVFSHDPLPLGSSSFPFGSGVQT

Sequence of EGFR (P00533 25-1210): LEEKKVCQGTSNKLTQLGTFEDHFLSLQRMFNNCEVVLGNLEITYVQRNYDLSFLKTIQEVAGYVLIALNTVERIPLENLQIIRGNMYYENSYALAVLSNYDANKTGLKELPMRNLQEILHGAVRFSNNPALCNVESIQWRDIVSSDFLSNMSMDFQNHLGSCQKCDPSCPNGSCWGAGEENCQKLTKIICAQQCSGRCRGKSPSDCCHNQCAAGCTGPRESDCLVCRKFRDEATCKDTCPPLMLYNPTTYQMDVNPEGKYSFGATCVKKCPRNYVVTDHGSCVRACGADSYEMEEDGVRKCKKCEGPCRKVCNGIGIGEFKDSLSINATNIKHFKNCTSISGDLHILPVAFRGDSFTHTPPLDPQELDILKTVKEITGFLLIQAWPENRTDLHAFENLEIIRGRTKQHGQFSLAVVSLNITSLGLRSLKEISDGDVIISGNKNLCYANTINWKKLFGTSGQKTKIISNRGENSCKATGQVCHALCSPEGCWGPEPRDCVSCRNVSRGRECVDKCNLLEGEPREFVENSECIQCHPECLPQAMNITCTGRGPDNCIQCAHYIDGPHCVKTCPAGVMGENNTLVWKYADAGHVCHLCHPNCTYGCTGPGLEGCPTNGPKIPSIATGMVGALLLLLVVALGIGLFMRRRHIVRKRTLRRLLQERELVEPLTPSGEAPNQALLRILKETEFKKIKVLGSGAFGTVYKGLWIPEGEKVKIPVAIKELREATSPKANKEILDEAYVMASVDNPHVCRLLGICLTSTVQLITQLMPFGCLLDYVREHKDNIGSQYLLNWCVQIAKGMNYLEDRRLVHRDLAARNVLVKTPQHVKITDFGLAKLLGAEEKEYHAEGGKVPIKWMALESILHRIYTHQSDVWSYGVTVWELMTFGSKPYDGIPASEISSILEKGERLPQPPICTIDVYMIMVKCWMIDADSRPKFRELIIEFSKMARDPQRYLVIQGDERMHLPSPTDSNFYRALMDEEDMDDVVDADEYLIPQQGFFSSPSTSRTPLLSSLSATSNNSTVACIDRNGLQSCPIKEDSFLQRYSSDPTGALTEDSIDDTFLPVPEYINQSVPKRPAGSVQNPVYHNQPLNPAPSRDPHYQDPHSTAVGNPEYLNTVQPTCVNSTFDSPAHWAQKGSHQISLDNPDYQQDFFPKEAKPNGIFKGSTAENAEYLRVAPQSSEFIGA
T1 sequence (Q06187 whole entry): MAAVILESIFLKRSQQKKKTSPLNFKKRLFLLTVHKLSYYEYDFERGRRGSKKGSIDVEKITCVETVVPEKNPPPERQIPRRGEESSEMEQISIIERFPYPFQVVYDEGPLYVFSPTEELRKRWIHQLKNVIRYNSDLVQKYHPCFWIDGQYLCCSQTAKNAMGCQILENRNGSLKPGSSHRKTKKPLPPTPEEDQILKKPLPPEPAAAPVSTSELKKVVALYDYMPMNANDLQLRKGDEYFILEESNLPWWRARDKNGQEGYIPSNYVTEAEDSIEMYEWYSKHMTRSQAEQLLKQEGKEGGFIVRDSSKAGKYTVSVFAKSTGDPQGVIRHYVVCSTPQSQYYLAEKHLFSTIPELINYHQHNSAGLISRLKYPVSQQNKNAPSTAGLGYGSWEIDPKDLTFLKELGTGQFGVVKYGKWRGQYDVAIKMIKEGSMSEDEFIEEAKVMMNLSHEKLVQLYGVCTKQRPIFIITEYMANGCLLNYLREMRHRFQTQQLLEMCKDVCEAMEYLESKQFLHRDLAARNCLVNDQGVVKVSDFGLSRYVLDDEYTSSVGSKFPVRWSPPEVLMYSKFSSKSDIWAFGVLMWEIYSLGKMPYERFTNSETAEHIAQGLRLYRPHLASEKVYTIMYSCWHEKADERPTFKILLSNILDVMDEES
Sequence of BMX (P51813 whole entry): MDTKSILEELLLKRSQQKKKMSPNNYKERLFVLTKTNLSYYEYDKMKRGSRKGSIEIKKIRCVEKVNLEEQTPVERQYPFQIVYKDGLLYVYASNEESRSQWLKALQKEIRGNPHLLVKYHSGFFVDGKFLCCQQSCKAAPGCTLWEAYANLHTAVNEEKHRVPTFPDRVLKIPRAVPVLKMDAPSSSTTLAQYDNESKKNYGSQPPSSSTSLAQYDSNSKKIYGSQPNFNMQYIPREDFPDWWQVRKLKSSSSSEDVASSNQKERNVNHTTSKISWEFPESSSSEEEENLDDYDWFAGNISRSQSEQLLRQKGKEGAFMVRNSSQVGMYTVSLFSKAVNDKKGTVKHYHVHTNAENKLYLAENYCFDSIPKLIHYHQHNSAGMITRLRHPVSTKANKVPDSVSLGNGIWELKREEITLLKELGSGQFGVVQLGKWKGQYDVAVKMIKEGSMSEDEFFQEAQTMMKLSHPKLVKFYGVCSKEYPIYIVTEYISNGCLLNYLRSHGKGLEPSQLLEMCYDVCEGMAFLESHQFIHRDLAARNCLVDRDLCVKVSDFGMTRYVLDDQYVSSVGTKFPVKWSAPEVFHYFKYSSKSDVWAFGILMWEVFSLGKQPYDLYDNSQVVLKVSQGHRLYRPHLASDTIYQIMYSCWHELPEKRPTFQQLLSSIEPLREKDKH

For the molecule `Nc1ncnc2c1c(-c1ccc(Oc3ccccc3)cc1)nn2C1CCN(S(=O)(=O)c2c(F)c(F)c(F)c(F)c2OC(F)F)C1` (stereo in doubt) [Compound I-26, (R)-1-(1-((2-(difluoromethoxy)-3,4,5,6-tetrafluorophenyl)sulfonyl)pyrrolidin-3-yl)-3-(4-phenoxyphenyl)-1H-pyrazolo[3,4-d]pyrimidin-4-amine], the remaining activity at 1 µM on EGFR was over 90%; at BTK [1] it was under 50%; on BMX it was under 50%; at JAK3, 50 to 90%; on FGFR4, under 50%. The remaining activity at 10 µM at EGFR was 50 to 90%; on BTK [1] it was under 50%; on BMX it was under 50%; on JAK3, 50 to 90%; at FGFR4, under 50%. Moreover, on BTK [2] (compound concentration 1 μM), the “pBTK inhibition (RAMOS, 24 h)” value is listed as “X”. Moreover, the IC50 against BMX and at FGFR4 (dose response) was under 1000 nM each time.
Consider `Nc1ncnc2c1c(-c1ccc(Oc3ccccc3)cc1)nn2CCNS(=O)(=O)c1c(F)c(F)c(F)c(F)c1C(F)F` [Compound I-22, N-(2-(4-amino-3-(4-phenoxyphenyl)-1H-pyrazolo[3,4-d]pyrimidin-1-yl)ethyl)-2-(difluoromethyl)-3,4,5,6-tetrafluorobenzenesulfonamide], for which the remaining activity at 1 µM at EGFR was over 90%; at BTK [1], under 50%; at BMX, under 50%; on JAK3, over 90%; at FGFR4 it was over 90%. In addition, the remaining activity at 10 µM on EGFR is under 50%; at BTK [1] it was under 50%; on BMX it was under 50%; on JAK3, 50 to 90%; at FGFR4 it was under 50%. Moreover, the “pBTK inhibition (RAMOS, 24 h)” value at BTK [2] (compound concentration 1 μM) is listed as “X”.
As to `COc1c(F)c(F)c(F)c(F)c1S(=O)(=O)n1nc(-c2ccc(Oc3ccccc3)cc2)c2c(N)ncnc21` [Compound I-23, 3-(4-phenoxyphenyl)-1-((2,3,4,5-tetrafluoro-6-methoxyphenyl)sulfonyl)-1H-pyrazolo[3,4-d]pyrimidin-4-amine], the remaining activity at 1 µM is under 50% at BTK [1], under 50% on BMX, over 90% on JAK3 and over 90% at FGFR4. The remaining activity at 10 µM on BTK [1] was under 50%; on BMX, under 50%; on JAK3, 50 to 90%; at FGFR4, over 90%. The “pBTK inhibition (RAMOS, 24 h)” value on BTK [2] (compound concentration 1 μM) is on record as “X”.
Turning to `Nc1ncnc2c1c(-c1ccc(Oc3ccccc3)cc1)nn2CCNS(=O)(=O)c1c(F)c(F)c(F)c(F)c1OCF` [Compound I-25, N-(2-(4-amino-3-(4-phenoxyphenyl)-1H-pyrazolo[3,4-d]pyrimidin-1-yl)ethyl)-2,3,4,5-tetrafluoro-6-(fluoromethoxy)benzenesulfonamide], the remaining activity at 1 µM is over 90% on EGFR; under 50% on BTK [1]; under 50% on BMX; over 90% on JAK3; 50 to 90% on FGFR4. The remaining activity at 10 µM at EGFR was over 90%; at BTK [1] it was under 50%; on BMX it was under 50%; on JAK3, 50 to 90%; at FGFR4, under 50%. The “pBTK inhibition (RAMOS, 24 h)” value at BTK [2] (compound concentration 1 μM) was “X”. At BMX, the half-inhibitory concentration (IC50) is under 1000 nM.
Consider `COCCOc1ccc(Nc2ncc(F)c(Nc3cccc(NS(=O)(=O)c4c(F)c(F)c(F)c(F)c4C(F)F)c3)n2)cc1` [Compound I-51, 2-(difluoromethyl)-3,4,5,6-tetrafluoro-N-(3-((5-fluoro-2-((4-(2-methoxyethoxy)phenyl)amino)pyrimidin-4-yl)amino)phenyl)benzenesulfonamide], for which the remaining activity at 1 µM is over 90% at EGFR; 50 to 90% on BTK [1]; under 50% on BMX; over 90% at JAK3; over 90% on FGFR4. Further, the remaining activity at 10 µM is over 90% on EGFR; under 50% at BTK [1]; under 50% on BMX; 50 to 90% at JAK3; under 50% on FGFR4. For the same molecule, the “pBTK inhibition (RAMOS, 24 h)” value on BTK [2] (compound concentration 10 μM) is “X”.
Regarding `COCCOc1ccc(Nc2ncc(F)c(NCCCNS(=O)(=O)c3c(F)c(F)c(F)c(F)c3C(F)F)n2)cc1` [Compound I-52, 2-(difluoromethyl)-3,4,5,6-tetrafluoro-N-(3-((5-fluoro-2-((4-(2-methoxyethoxy)phenyl)amino)pyrimidin-4-yl)amino)propyl)benzenesulfonamide], the remaining activity at 1 µM on EGFR is over 90%; on BTK [1], under 50%; on BMX, under 50%; on JAK3, under 50%; on FGFR4, over 90%. Besides, the remaining activity at 10 µM at EGFR was 50 to 90%; at BTK [1] it was under 50%; on BMX, under 50%; on JAK3 it was under 50%; on FGFR4, under 50%. Moreover, the “pBTK inhibition (RAMOS, 24 h)” value at BTK [2] (compound concentration 1 μM) was “X”. The molecule further displayed an IC50 against JAK3 (dose response) of under 1000 nM.
